Results reported in the supplement of paper PMC10307832.

Tests used:
Assay in all cases: relative viability (nuclei count vs DMSO), 5 days (fraction); higher = more cells survive
[1] = system: NCI-H647
In short: (§1)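 Relative viability divides the nuclei count in treated wells by that in vehicle wells. Lung cancer cell lines were seeded in 1536-well plates, dosed by pin tool the next day, and fixed and stained after 5 days in one step with final 0.05% Triton X-100, 1% formaldehyde and 1 ug/ml Hoechst. Dosing was a single drug or a fixed anchor-drug dose plus five library-drug doses (not always all listed) in √10 steps, and values are medians of duplicate plates imaged at 4×.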

[2] = system: HCC-78
In short: as §1

[3] = system: HCC-827
In short: as §1

[4] = system: NCI-H1666
In short: as §1

[5] = system: NCI-H650
In short: as §1

[6] = system: NCI-H2087
In short: as §1

[7] = system: COR-L 105
In short: as §1

[8] = system: 201T
In short: as §1

[9] = system: NCI-H520
In short: as §1

[10] = system: NCI-H1915
In short: as §1

[11] = system: RERF-LC-KJ
In short: as §1

[12] = system: PC-14
In short: as §1

[13] = system: NCI-H23
In short: as §1

[14] = system: ChaGo-K-1
In short: as §1

[15] = system: NCI-H2347
In short: as §1

[16] = system: H3255
In short: as §1

[17] = system: NCI-H2405
In short: as §1

[18] = system: LCLC-97TM1
In short: as §1

[19] = system: NCI-H661
In short: as §1

[20] = system: EPLC-272H
In short: as §1

[21] = system: NCI-H2126
In short: as §1

[22] = system: LC-2-ad
In short: as §1

## O=c1cc(-c2cccc3c2Sc2ccccc2S3)oc(N2CCOCC2)c1 + CS(=O)(=O)N1CCN(Cc2cc3nc(-c4cccc5[nH]ncc45)nc(N4CCOCC4)c3s2)CC1 [Pictilisib] (partner 1 µM)
[1]; first compound 0.08 µM
  relative viability: 0.341
[1]; first compound 0.253 µM
  relative viability: 0.499
[1]; first compound 0.8 µM
  relative viability: 0.365
[1]; first compound 8 µM
  relative viability: 0.603
[2]; first compound 0.08 µM
  relative viability: 0.182
[2]; first compound 0.253 µM
  relative viability: 0.199
[2]; first compound 0.8 µM
  relative viability: 0.207
[2]; first compound 2.53 µM
  relative viability: 0.196
[2]; first compound 8 µM
  relative viability: 0.255
[3]; first compound 0.08 µM
  relative viability: 0.945
[3]; first compound 0.253 µM
  relative viability: 1.13
[3]; first compound 0.8 µM
  relative viability: 1.12
[3]; first compound 2.53 µM
  relative viability: 0.743
[3]; first compound 8 µM
  relative viability: 1.1
[4]; first compound 0.08 µM
  relative viability: 0.404
[4]; first compound 0.253 µM
  relative viability: 0.416
[4]; first compound 0.8 µM
  relative viability: 0.323
[4]; first compound 2.53 µM
  relative viability: 0.411
[4]; first compound 8 µM
  relative viability: 0.396
[5]; first compound 0.08 µM
  relative viability: 0.807
[5]; first compound 0.253 µM
  relative viability: 0.873
[5]; first compound 0.8 µM
  relative viability: 0.741
[5]; first compound 2.53 µM
  relative viability: 0.806
[5]; first compound 8 µM
  relative viability: 0.767
[6]; first compound 0.08 µM
  relative viability: 0.954
[6]; first compound 0.253 µM
  relative viability: 1.15
[6]; first compound 0.8 µM
  relative viability: 0.931
[6]; first compound 2.53 µM
  relative viability: 0.87
[6]; first compound 8 µM
  relative viability: 0.973
[7]; first compound 0.08 µM
  relative viability: 0.502
[7]; first compound 0.253 µM
  relative viability: 0.441
[7]; first compound 0.8 µM
  relative viability: 0.362
[7]; first compound 2.53 µM
  relative viability: 0.338
[7]; first compound 8 µM
  relative viability: 0.408
[8]; first compound 0.08 µM
  relative viability: 0.652
[8]; first compound 0.253 µM
  relative viability: 0.718
[8]; first compound 0.8 µM
  relative viability: 0.51
[8]; first compound 2.53 µM
  relative viability: 0.616
[8]; first compound 8 µM
  relative viability: 0.742
[9]; first compound 0.08 µM
  relative viability: 0.308
[9]; first compound 0.253 µM
  relative viability: 0.354
[9]; first compound 0.8 µM
  relative viability: 0.306
[9]; first compound 2.53 µM
  relative viability: 0.273
[9]; first compound 8 µM
  relative viability: 0.374
[10]; first compound 0.08 µM
  relative viability: 0.821
[10]; first compound 0.253 µM
  relative viability: 1.01
[10]; first compound 0.8 µM
  relative viability: 0.904
[10]; first compound 2.53 µM
  relative viability: 0.828
[10]; first compound 8 µM
  relative viability: 0.976
[11]; first compound 0.08 µM
  relative viability: 0.43
[11]; first compound 0.253 µM
  relative viability: 0.608
[11]; first compound 0.8 µM
  relative viability: 0.622
[11]; first compound 2.53 µM
  relative viability: 0.571
[11]; first compound 8 µM
  relative viability: 0.521
[12]; first compound 0.08 µM
  relative viability: 0.48
[12]; first compound 0.253 µM
  relative viability: 0.977
[12]; first compound 0.8 µM
  relative viability: 0.755
[12]; first compound 2.53 µM
  relative viability: 0.748
[12]; first compound 8 µM
  relative viability: 0.668
[13]; first compound 0.08 µM
  relative viability: 0.559
[13]; first compound 0.253 µM
  relative viability: 0.523
[13]; first compound 0.8 µM
  relative viability: 0.47
[13]; first compound 2.53 µM
  relative viability: 0.4
[13]; first compound 8 µM
  relative viability: 0.457
[14]; first compound 0.08 µM
  relative viability: 0.649
[14]; first compound 0.253 µM
  relative viability: 0.624
[14]; first compound 0.8 µM
  relative viability: 0.777
[14]; first compound 8 µM
  relative viability: 1.12
[15]; first compound 0.08 µM
  relative viability: 0.633
[15]; first compound 0.253 µM
  relative viability: 0.952
[15]; first compound 0.8 µM
  relative viability: 0.567
[15]; first compound 2.53 µM
  relative viability: 0.733
[15]; first compound 8 µM
  relative viability: 0.476
[16]; first compound 0.08 µM
  relative viability: 0.408
[16]; first compound 0.253 µM
  relative viability: 0.463
[16]; first compound 0.8 µM
  relative viability: 0.427
[16]; first compound 2.53 µM
  relative viability: 0.402
[16]; first compound 8 µM
  relative viability: 0.513
[17]; first compound 0.08 µM
  relative viability: 0.454
[17]; first compound 0.253 µM
  relative viability: 0.386
[17]; first compound 0.8 µM
  relative viability: 0.333
[17]; first compound 2.53 µM
  relative viability: 0.491
[17]; first compound 8 µM
  relative viability: 0.492
[18]; first compound 0.08 µM
  relative viability: 0.166
[18]; first compound 0.253 µM
  relative viability: 0.174
[18]; first compound 0.8 µM
  relative viability: 0.208
[18]; first compound 2.53 µM
  relative viability: 0.158
[18]; first compound 8 µM
  relative viability: 0.184
[19]; first compound 0.08 µM
  relative viability: 0.352
[19]; first compound 0.253 µM
  relative viability: 0.394
[19]; first compound 0.8 µM
  relative viability: 0.404
[19]; first compound 2.53 µM
  relative viability: 0.35
[19]; first compound 8 µM
  relative viability: 0.446
[20]; first compound 0.08 µM
  relative viability: 0.321
[20]; first compound 0.253 µM
  relative viability: 0.334
[20]; first compound 0.8 µM
  relative viability: 0.29
[20]; first compound 2.53 µM
  relative viability: 0.289
[20]; first compound 8 µM
  relative viability: 0.327
[21]; first compound 0.08 µM
  relative viability: 0.454
[21]; first compound 0.253 µM
  relative viability: 0.509
[21]; first compound 0.8 µM
  relative viability: 0.412
[21]; first compound 2.53 µM
  relative viability: 0.452
[21]; first compound 8 µM
  relative viability: 0.56
[22]; first compound 0.08 µM
  relative viability: 0.472
[22]; first compound 0.253 µM
  relative viability: 0.545
[22]; first compound 0.8 µM
  relative viability: 0.465
[22]; first compound 2.53 µM
  relative viability: 0.432
[22]; first compound 8 µM
  relative viability: 0.425
